According to PubChem BioAssay (NCI):
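Test compounds were applied to cells in 96-well plates for 48 hours at 5 doses. GI50 = concentration required for 50% inhibition of growth. TGI: total growth inhibition.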

What was measured:
Test in all cases: NCI-60 cell line screen, 48 h
PC-3 prostate = test system: PC-3 prostate
K-562 leukemia = test system: K-562 leukemia
CCRF-CEM leukemia = test system: CCRF-CEM leukemia
U251 CNS = test system: U251 CNS
SN12C renal = test system: SN12C renal
OVCAR-5 ovarian = test system: OVCAR-5 ovarian
IGROV1 ovarian = test system: IGROV1 ovarian
SK-MEL-5 melanoma = test system: SK-MEL-5 melanoma
HL-60(TB) leukemia = test system: HL-60(TB) leukemia
HOP-62 NSCLC = test system: HOP-62 NSCLC
M14 melanoma = test system: M14 melanoma
SR leukemia = test system: SR leukemia
NCI-H522 lung = test system: NCI-H522 lung
COLO 205 colon = test system: COLO 205 colon
HCT-116 colon = test system: HCT-116 colon
ACHN renal = test system: ACHN renal
OVCAR-4 ovarian = test system: OVCAR-4 ovarian
RPMI-8226 leukemia = test system: RPMI-8226 leukemia
HOP-92 NSCLC = test system: HOP-92 NSCLC
SNB-75 CNS = test system: SNB-75 CNS
A498 renal = test system: A498 renal
DU-145 prostate = test system: DU-145 prostate
NCI-H226 lung = test system: NCI-H226 lung
HS 578T breast = test system: HS 578T breast
EKVX NSCLC = test system: EKVX NSCLC
NCI-H460 lung = test system: NCI-H460 lung
CAKI-1 renal = test system: CAKI-1 renal
MDA-MB-231 breast = test system: MDA-MB-231 breast
786-0 renal = test system: 786-0 renal
UO-31 renal = test system: UO-31 renal

How did the TGI (PC-3 prostate) turn out when Nc1nc(-c2ccccc2)c(N=Nc2ccc(Cl)cc2Cl)s1 was run?
The TGI was 12.4 µM.

And the GI50 (K-562 leukemia)?
Its GI50 is 3.58 µM.

What about the TGI (K-562 leukemia) of the same compound?
Its TGI is 14.9 µM.

And the GI50 (CCRF-CEM leukemia)?
The GI50 was 3.13 µM.

What about the TGI (CCRF-CEM leukemia) of the same compound?
The TGI was 11 µM.

What about the GI50 (U251 CNS) of the same compound?
The GI50 was 4.28 µM.

What about the TGI (U251 CNS) of the same compound?
The TGI was 15.8 µM.

What about the GI50 (SN12C renal) of the same compound?
The GI50 was 3.81 µM.

And the TGI (SN12C renal)?
Its TGI is 15.3 µM.

What about the GI50 (OVCAR-5 ovarian) of the same compound?
The GI50 was 3.58 µM.

And the TGI (OVCAR-5 ovarian)?
The TGI was 15.4 µM.

And the GI50 (IGROV1 ovarian)?
Its GI50 is 2.13 µM.

What about the TGI (IGROV1 ovarian) of the same compound?
The TGI was 12.7 µM.

What about the GI50 (SK-MEL-5 melanoma) of the same compound?
Its GI50 is 2.6 µM.

What about the TGI (SK-MEL-5 melanoma) of the same compound?
Its TGI is 8.66 µM.

And the GI50 (HL-60(TB) leukemia)?
Its GI50 is 3.42 µM.

And the TGI (HL-60(TB) leukemia)?
Its TGI is 12.9 µM.

And the GI50 (HOP-62 NSCLC)?
Its GI50 is 4.01 µM.

And the TGI (HOP-62 NSCLC)?
Its TGI is 18.4 µM.

And the GI50 (M14 melanoma)?
The GI50 was 2.88 µM.

And the TGI (M14 melanoma)?
Its TGI is 9.54 µM.

And the GI50 (SR leukemia)?
Its GI50 is 3.1 µM.

What about the TGI (SR leukemia) of the same compound?
Its TGI is 12.8 µM.

What about the GI50 (NCI-H522 lung) of the same compound?
Its GI50 is 2.91 µM.

What about the TGI (NCI-H522 lung) of the same compound?
The TGI was 13.3 µM.

What about the GI50 (COLO 205 colon) of the same compound?
The GI50 was 3.91 µM.

And the TGI (COLO 205 colon)?
Its TGI is 14.1 µM.

What about the GI50 (HCT-116 colon) of the same compound?
Its GI50 is 3.33 µM.

And the TGI (HCT-116 colon)?
The TGI was 12.6 µM.

What about the GI50 (ACHN renal) of the same compound?
Its GI50 is 2.81 µM.

And the TGI (ACHN renal)?
Its TGI is 12.9 µM.

And the GI50 (OVCAR-4 ovarian)?
Its GI50 is 3.82 µM.

And the TGI (OVCAR-4 ovarian)?
The TGI was 17 µM.

What about the GI50 (RPMI-8226 leukemia) of the same compound?
Its GI50 is 3.31 µM.

And the TGI (RPMI-8226 leukemia)?
Its TGI is 15.2 µM.

And the GI50 (HOP-92 NSCLC)?
The GI50 was 1.85 µM.

What about the TGI (HOP-92 NSCLC) of the same compound?
Its TGI is 5.86 µM.

And the GI50 (SNB-75 CNS)?
Its GI50 is 1.57 µM.

What about the TGI (SNB-75 CNS) of the same compound?
Its TGI is 8.52 µM.

And the GI50 (A498 renal)?
The GI50 was 6.03 µM.

What about the TGI (A498 renal) of the same compound?
The TGI was 18.4 µM.

And the GI50 (DU-145 prostate)?
The GI50 was 5.52 µM.

And the TGI (DU-145 prostate)?
Its TGI is 17.8 µM.

And the GI50 (NCI-H226 lung)?
The GI50 was 2.11 µM.

What about the TGI (NCI-H226 lung) of the same compound?
The TGI was 10.4 µM.

What about the GI50 (HS 578T breast) of the same compound?
The GI50 was 3.14 µM.

What about the TGI (HS 578T breast) of the same compound?
Its TGI is 17.8 µM.

And the GI50 (EKVX NSCLC)?
The GI50 was 2.04 µM.

And the TGI (EKVX NSCLC)?
Its TGI is 12.3 µM.

What about the GI50 (NCI-H460 lung) of the same compound?
Its GI50 is 2.92 µM.

And the TGI (NCI-H460 lung)?
Its TGI is 11.7 µM.

And the GI50 (CAKI-1 renal)?
Its GI50 is 2.52 µM.

And the TGI (CAKI-1 renal)?
The TGI was 12.3 µM.

And the GI50 (MDA-MB-231 breast)?
Its GI50 is 2.19 µM.

And the TGI (MDA-MB-231 breast)?
The TGI was 8.67 µM.

And the GI50 (786-0 renal)?
The GI50 was 2.48 µM.

What about the TGI (786-0 renal) of the same compound?
The TGI was 6.34 µM.

And the GI50 (UO-31 renal)?
The GI50 was 1.45 µM.

And the TGI (UO-31 renal)?
The TGI was 11.7 µM.
